In patent publication US20230130513A1, “Magnetic-Responsive Photosensitizer Nanoplatform and Uses Thereof” (University of Maryland, Baltimore, priority 2021, published 2023):

Experiments:
[1] = system: Human gingival fibroblasts; experiment: Live/dead assay of fibroblast cells; assay type: cell-based; conditions: one day incubation; microemulsions 1:1 with medium
Method: Human gingival fibroblasts (HGF, ScienCell, San Diego, Calif., USA) were cultured using fibroblast medium (FM) supplemented with 2% fetal bovine serum, 1% fibroblast growth supplement, 100 IU/mL penicillin, and 100 IU/mL streptomycin (18 76). When the viability of the cells was above 90%, the cells were seeded in the wells of a 96-well plate (5,000 cells per well) and incubated for 24 h. In the following day, the medium was removed, and different concentrations of superparamagnetic iron(II) oxide nanoparticles (0.25, 0.5, 1, 1.5, 2, 2.5, and 5 wt. %) nanoparticles with and without 100 μg/mL of TBO photosensitizer were dissolved in the fibroblast medium and incubated in contact with the cells for 24 h. The synthesized microemulsions containing the different concentrations of superparamagnetic iron(II) oxide nanoparticles (0.25, 0.5, 1, 1.5, 2, 2.5, and 5 wt. %) were also tested. All the microemulsions were diluted with the fibroblast medium at a 1:1 ratio. After 24 h of incubation at 37° C. with 5% CO2, the cells were washed with phosphate-buffered saline (PBS), and cell counting Kit-8 (CCK-8, Dojindo, Rockville, Md., USA) was used to evaluate the cell viability. The absorbance was read at 450 nm using a spectrophotometer (SpectraMax M5, Molecular Devices, Sunnyvale, Calif., USA). […]

[2] = Density of microemulsion; assay type: physicochemical
[3] = system: saliva-derived multispecies biofilms; experiment: Photodynamic treatment against saliva-derived biofilms (CFU); assay type: cell-based; conditions: 7-day biofilm on dentin slabs, aPDT, no magnetic field, vs control
Method: Photodynamic Treatment with MagTBO Against Saliva-Derived Biofilms
Saliva samples were collected from ten healthy individuals with no active carious lesions or history of antibiotics in the last three months. The participants were instructed not to brush their teeth 24 h and not eat or drink two h before the collection. The collected saliva samples were mixed to create a homogenous and complex bacterial composition. The use of saliva as inoculum was approved by the University of Maryland Baltimore Institutional Review Board (HP-00050407). The collected saliva was mixed with glycerol (70:30) and stored at −80° C. This model was used in previous studies to form thick and mature multispecies biofilm (24-26).
Dentin slabs (6×6×1 mm) were used as substrates to grow the biofilm (FIG. 8A). The slabs were prepared from radicular dentin of extracted teeth using a diamond saw with water as coolant (Isomet, Buehler, Lake Bluff, Ill., USA). The collection and the use of extracted teeth were approved by the University of Maryland Baltimore Institutional Review Board. […] The microhardness of the slabs was measured via Vicker's indentation (HMV II, Shimadzu Corporation, Kyoto, Japan) by calculating the average of five different indentations (25 g load for 10 s) per slab (27). […]

[4] = system: S. mutans UA159 biofilms; experiment: Photodynamic treatment against Streptococcus mutans biofilms (CFU); assay type: cell-based; conditions: for antibacterial effect of core components on S. mutans biofilm: components alone, diluted to their concentration in the microemulsion (FIG. 5A)
Method: Photodynamic Treatment Via MagTBO Against Streptococcus mutans Biofilms S. mutans UA159 obtained from the American Type Culture Collection (ATCC, Manassas, Va., USA) were grown overnight using brain heart infusion (BHI) broth (Sigma-Aldrich, St. Louis, Mo., USA) at 37° C. and 5% CO2 incubator. The optical density of the S. mutans was modified to 1×10^8 colony-forming units (CFU)/mL (OD600=0.9) and diluted 1:20 with BHI broth supplemented with 2% of sucrose (12). 200 μL of the diluted overnight culture was placed inside the wells of a black 96-well plate for 24 h. The media was changed after 24 h and 48 h of biofilm growth was continued. The biofilm was washed with 0.9% saline and irradiated with 100 μg/mL of TBO and MagTBO microemulsions containing 1, 2.5, and 5% of SPIONs with and without magnetic field (neodymium magnet, 0.4 Tesla; pull force=601b5). The TBO or the microemulsions were left for 1 min and then irradiated for 5 minutes to deliver an energy density of 180 J/cm^2 and light intensity of 180 mW. The magnetic field was applied at a 10 mm distance below the biofilm during the entire period of the incubation and irradiation times (FIG. 1C). Untreated wells and wells treated with glycerol, essential oil, and polysorbate 20 were used as controls. After each treatment, the biofilms were washed by placing 200 μL of 0.9% saline inside the well, and then, the 0.9% saline was gently aspirated. Next, another 200 μL of saline was placed inside the well, and the biofilm was gently scraped to remove the biofilm cells (23). Then, the biofilm cells were resuspended with the saline to perform serial dilutions (1:10, 1:100, 1:1000, 1:10 000, and 1:100 000) using BHI agar. The BHI agar plates were incubated for 48 h at 37° C. in a 5% CO2 incubator and then counted using a colony counter. Considering the dilution factor, the CFUs/mL were calculated and estimated to measure the number of colonies per milliliter. Two wells were randomly selected for Live/Dead staining of the biofilms to be washed with 0.9% saline and then stained with the BacLight live/dead kit (Molecular Probes, Eugene, Oreg.).

[5] = system: mouse monocyte-macrophage cells; conditions: cited from earlier work
[6] = Absorbance change over time (UV-visible spectrometry); assay type: physicochemical
Method: (§1) Three microemulsions were selected for further investigations (1, 2.5, and 5 wt. %). Microemulsions were tested for thermodynamic stability via centrifugation stress at 5,000 rpm for 2 h at 4° C., and freeze-thaw stress consisting of three complete cycles. Each cycle consisted of placing the microemulsion for 24 h at −20° C. followed by another 24 h at 4° C. […] For long-term stability, microemulsions were kept in the dark at room temperature and then examined at 1, 3, and 6 months for physical changes or phase separation (21,22). The pH of the synthesized microemulsions was tested using a digital pH meter (accuracy±5%; Accumet XL25, Thermo Fisher Scientific, Waltham, Mass., USA). Before the pH measurement, the pH meter was calibrated using commercial standard buffer solutions of pH 4, pH 7, and pH 10 at room temperature. For the absorbance evaluation, the upper third of the synthesized microemulsions was investigated over time using ultraviolet-visible optical absorption spectrometry (SpectraMax M5, Molecular Devices, Sunnyvale, Calif., USA). […] The density of each microemulsion was calculated following the equation: […]

[7] = system: Human gingival fibroblasts
Method: Human gingival fibroblasts (HGF, ScienCell, San Diego, Calif., USA) were cultured using fibroblast medium (FM) supplemented with 2% fetal bovine serum, 1% fibroblast growth supplement, 100 IU/mL penicillin, and 100 IU/mL streptomycin (18 76). When the viability of the cells was above 90%, the cells were seeded in the wells of a 96-well plate (5,000 cells per well) and incubated for 24 h. In the following day, the medium was removed, and different concentrations of superparamagnetic iron(II) oxide nanoparticles (0.25, 0.5, 1, 1.5, 2, 2.5, and 5 wt. %) nanoparticles with and without 100 μg/mL of TBO photosensitizer were dissolved in the fibroblast medium and incubated in contact with the cells for 24 h. The synthesized microemulsions containing the different concentrations of superparamagnetic iron(II) oxide nanoparticles (0.25, 0.5, 1, 1.5, 2, 2.5, and 5 wt. %) were also tested. All the microemulsions were diluted with the fibroblast medium at a 1:1 ratio. After 24 h of incubation at 37° C. with 5% CO2, the cells were washed with phosphate-buffered saline (PBS), and cell counting Kit-8 (CCK-8, Dojindo, Rockville, Md., USA) was used to evaluate the cell viability. The absorbance was read at 450 nm using a spectrophotometer (SpectraMax M5, Molecular Devices, Sunnyvale, Calif., USA). For the live/dead assay, the fibroblast cells were seeded in the wells of a 24-well plate (40,000 cells per well). The medium was changed daily to allow the viability to be above 90%. Microemulsions containing 5 and 2.5% were added to a fresh culture medium at the ratio of 1:1 and incubated with the cells for one day. Wells treated with TBO alone or with no treatment were used as controls. After one day of incubation, the old medium was removed, cells were washed with PBS, and LIVE/DEAD™ Cell Imaging Kit (Invitrogen, Frederick, Md., USA) was used to stain the cells. The cells were visualized using an inverted epifluorescence microscope (Eclipse TE2000-S, Nikon, Melville, N.Y., USA).

[8] = pH measurement; assay type: physicochemical; conditions: room temperature
Method: as §1

[9] = system: S. mutans biofilms; experiment: Live/Dead staining of S. mutans biofilms; assay type: cell-based, Streptococcus mutans; conditions: aPDT, no magnetic field
Method: After each treatment, the biofilms were washed by placing 200 μL of 0.9% saline inside the well, and then, the 0.9% saline was gently aspirated. Next, another 200 μL of saline was placed inside the well, and the biofilm was gently scraped to remove the biofilm cells (23). Then, the biofilm cells were resuspended with the saline to perform serial dilutions (1:10, 1:100, 1:1000, 1:10 000, and 1:100 000) using BHI agar. The BHI agar plates were incubated for 48 h at 37° C. in a 5% CO2 incubator and then counted using a colony counter. Considering the dilution factor, the CFUs/mL were calculated and estimated to measure the number of colonies per milliliter. Two wells were randomly selected for Live/Dead staining of the biofilms to be washed with 0.9% saline and then stained with the BacLight live/dead kit (Molecular Probes, Eugene, Oreg.).

Compound	viable cells in live/dead images [1]	Density [2]	reduction of multispecies biofilm CFU (total microorganisms, total streptococci, mutans streptococci, total lactobacilli) [3]	reduction against the S. mutans biofilm (CFU) ([4]; aPDT with light activation 180 J/cm2, no magnetic field, vs control (FIG. 5C))	antibacterial effect on S. mutans biofilm ([4]; incubated for 5 min without light activation (FIG. 5B))	toxicity against macrophage cells ([5]; 100 μg/mL TBO, previous report (12))	cytotoxicity against macrophage cell line ([5]; concentrations higher than 100 μg/mL, reported (12))	Absorbance change (%) ([6]; 1-Month)	Absorbance change (%) ([6]; 3-Month)	Absorbance change (%) ([6]; 6-Month)	percentage of fibroblast viability ([7]; TBO alone, 100 μg/mL, 24 h)	cytotoxicity against fibroblasts (in words) ([7]; compared to the control)	pH Measurement [8]	viable microorganisms in live/dead images [9]	antibacterial effect of core components on S. mutans biofilm [4]	cytotoxicity of the microemulsion components (in words) ([7]; added to fibroblast media in a ratio similar to their proportion in the microemulsion)
Cc1cc2nc3ccc(N(C)C)cc3[s+]c2cc1N.[Cl-] [TBO, toluidine blue O]	significantly reduced viability	1 g/mL	around 1 log	3 log	No antibacterial effect	did not induce significant toxicity	critical cytotoxicity	No change	No change	No change	33.4%	significant toxicity	3.19 ± 0.05	significant reduction in the viable microorganisms		
OCC(O)CO [glycerol]															None of the components were associated with any antibacterial effect	
polysorbate 20															None of the components were associated with any antibacterial effect	significant cytotoxicity
